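Step 1: Grow cells in 96-well plates. Step 2: Expose to compound for 48 hours at 5 concentrations. Step 3: Interpolate endpoints linearly; if unreached, use highest concentration. Abbreviation: GI50, concentration required for 50% inhibition of growth.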 The source made the active and inactive calls. No stated cut-off is given here; in the data, active = GI50 up to about 1.1 µM and inactive = higher.
Assays:
Test in all cases: inhibition of tumour cell growth, NCI panel, 48 h
HT-29 = tested on: HT-29
A498 = tested on: A498
SR = tested on: SR
EKVX = tested on: EKVX
SF-268 = tested on: SF-268
Malme-3M = tested on: Malme-3M
NCI-H460 = tested on: NCI-H460
RXF 393 = tested on: RXF 393
OVCAR-5 = tested on: OVCAR-5
KM-20L2 = tested on: KM-20L2
HOP-92 = tested on: HOP-92
HCT-116 = tested on: HCT-116
OVCAR-8 = tested on: OVCAR-8
K562 = tested on: K562
CCRF-CEM = tested on: CCRF-CEM
HOP-62 = tested on: HOP-62
786-0 = tested on: 786-0
OVCAR-4 = tested on: OVCAR-4
IGROV-1 = tested on: IGROV-1
SNB-75 = tested on: SNB-75
DMS-114 = tested on: DMS-114
M14 = tested on: M14
LOX IMVI = tested on: LOX IMVI
SK-MEL-5 = tested on: SK-MEL-5
ACHN = tested on: ACHN
UACC-257 = tested on: UACC-257
SN12C = tested on: SN12C
RPMI-8226 = tested on: RPMI-8226
M19-MEL = tested on: M19-MEL
SF-295 = tested on: SF-295
SK-OV-3 = tested on: SK-OV-3
HCC 2998 = tested on: HCC 2998
DMS-273 = tested on: DMS-273
CAKI-1 = tested on: CAKI-1
U-251 = tested on: U-251
NCI-H522 = tested on: NCI-H522
SF-539 = tested on: SF-539
COLO 205 = tested on: COLO 205
SK-MEL-28 = tested on: SK-MEL-28
MOLT-4 = tested on: MOLT-4
TK-10 = tested on: TK-10
NCI-H226 = tested on: NCI-H226
UO-31 = tested on: UO-31
XF498 = tested on: XF498
SK-MEL-2 = tested on: SK-MEL-2
KM12 = tested on: KM12
DLD-1 = tested on: DLD-1
OVCAR-3 = tested on: OVCAR-3
NCI-H23 = tested on: NCI-H23
HCT-15 = tested on: HCT-15
SW-620 = tested on: SW-620
HOP-18 = tested on: HOP-18
SNB-78 = tested on: SNB-78
HL-60 = tested on: HL-60
RXF 631 = tested on: RXF 631
A549 = tested on: A549
UACC-62 = tested on: UACC-62
SNB-19 = tested on: SNB-19

## CN1C=C(C(N)=O)C2CC(O)[C@@](NC(=O)CS(N)(=O)=O)(C(=O)O)C2C1 (stereo partly drawn)
HT-29
  GI50: 3.33 µM (inactive)
A498
  GI50: 2.03 µM (inactive)
SR
  GI50: 2.02 µM (inactive)
EKVX
  GI50: 4.19 µM (inactive)
SF-268
  GI50: 3.02 µM (inactive)
Malme-3M
  GI50: 4.57 µM (inactive)
NCI-H460
  GI50: 3.49 µM (inactive)
RXF 393
  GI50: 1.76 µM (inactive)
OVCAR-5
  GI50: 2.42 µM (inactive)
KM-20L2
  GI50: 3.79 µM (inactive)
HOP-92
  GI50: 1.49 µM (inactive)
HCT-116
  GI50: 3.32 µM (inactive)
OVCAR-8
  GI50: 5.9 µM (inactive)
K562
  GI50: 2.17 µM (inactive)
CCRF-CEM
  GI50: 9.33 µM (inactive)
HOP-62
  GI50: 1.82 µM (inactive)
786-0
  GI50: 3.61 µM (inactive)
OVCAR-4
  GI50: 2.09 µM (inactive)
IGROV-1
  GI50: 2.73 µM (inactive)
SNB-75
  GI50: 2.23 µM (inactive)
DMS-114
  GI50: 2.52 µM (inactive)
M14
  GI50: 1.49 µM (inactive)
LOX IMVI
  GI50: 2.37 µM (inactive)
SK-MEL-5
  GI50: 6.31 µM (inactive)
ACHN
  GI50: 4.88 µM (inactive)
UACC-257
  GI50: 5.24 µM (inactive)
SN12C
  GI50: 18.2 µM (inactive)
RPMI-8226
  GI50: 18 µM (inactive)
M19-MEL
  GI50: 4.39 µM (inactive)
SF-295
  GI50: 2.75 µM (inactive)
SK-OV-3
  GI50: 2.47 µM (inactive)
HCC 2998
  GI50: 18.5 µM (inactive)
DMS-273
  GI50: 3.21 µM (inactive)
CAKI-1
  GI50: 5.46 µM (inactive)
U-251
  GI50: 3.05 µM (inactive)
NCI-H522
  GI50: 11.7 µM (inactive)
SF-539
  GI50: 2.05 µM (inactive)
COLO 205
  GI50: 14.1 µM (inactive)
SK-MEL-28
  GI50: 2.43 µM (inactive)
MOLT-4
  GI50: 1.7 µM (inactive)
TK-10
  GI50: 3.92 µM (inactive)
NCI-H226
  GI50: 2.68 µM (inactive)
UO-31
  GI50: 3.05 µM (inactive)
XF498
  GI50: 1.27 µM (inactive)
SK-MEL-2
  GI50: 2.92 µM (inactive)
KM12
  GI50: 20.7 µM (inactive)
DLD-1
  GI50: 16.8 µM (inactive)
OVCAR-3
  GI50: 17.5 µM (inactive)
NCI-H23
  GI50: 1.86 µM (inactive)
HCT-15
  GI50: 8.91 µM
SW-620
  GI50: 3.87 µM (inactive)
HOP-18
  GI50: 8.41 µM (inactive)
SNB-78
  GI50: 2.75 µM (inactive)
HL-60
  GI50: < 0.01 µM (active)
RXF 631
  GI50: 2.98 µM (inactive)
A549
  GI50: 3.25 µM (inactive)
UACC-62
  GI50: 2.17 µM (inactive)
SNB-19
  GI50: 2.79 µM (inactive)
